Laboratory results reported in paper PMC6458850, “CXXC5 mediates growth plate senescence and is a target for enhancement of longitudinal bone growth” (Life Science Alliance, 2019).

Experiments:
CXXC5–DVL interaction = molecular target: T1, CXXC5–DVL interaction (Homo sapiens, UniProt O14640); assay: In vitro CXXC5–DVL binding assay (FITC-tagged PTD-DBMP on DVL PDZ domain); conditions: dose–response curve, n = 3
T1 sequence (O14640 251-340 limits assumed): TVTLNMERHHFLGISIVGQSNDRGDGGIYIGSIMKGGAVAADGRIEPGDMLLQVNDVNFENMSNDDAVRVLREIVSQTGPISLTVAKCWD
Procedure: After the addition of 10 μM FITC-tagged PTD-DBMP to each well, each compound in the chemical library or control (DMSO) was treated to the well at a final concentration of 30 μM. The fluorescence intensity was measured using a Fluorstar Optima microplate reader (BGM Lab Technologies, Ortenberg, Germany). The binding values were calculated as a percent ratio of the fluorescent intensity normalized to the DMSO-treated control.

[1] = Toxicity observations in mice treated with KY19382 for 10 wk; format: in vivo, mouse; conditions: 0.1 mg/kg i.p. daily for 10 wk
Procedure: Figure S9. The effects of KY19382 on articular cartilage and liver tissues, or weight. Data are shown from mice used in Fig 5J. (A, B) H&E staining of articular cartilage (A) and liver (B) tissues. (C) During treatment, the weights of mice were measured every 5–7 d (mean ± SEM, n = 7∼15). Scale bars, 100 μm.
Cxxc5^−/− mice were established in a previous study ([Kim et al, 2015]). To manipulate growth plate senescence by estrogen, 3-wk-old Cxxc5^+/+ and Cxxc5^−/− male mice received weekly i.m. injections of either 70 μg/kg estradiol (E2) cypionate (Sigma-Aldrich) or vehicle (cottonseed oil) for 3 wk. To investigate the effects of KY19382 treatment on longitudinal bone growth, C57BL/6 male mice were purchased from KOATECH (Gyeonggido, Korea). KY19382 (0.1 mg/kg) was administered daily by i.p. injection to 3- and 7-wk-old mice for 2 wk or to 3-wk-old mice for 10 wk. For BrdU labeling experiments, the mice were i.p. injected with 50 mg/kg BrdU (Sigma-Aldrich) before 24 h to euthanize. All animal procedures were approved by the Institutional Animal Care and Use Committee of Yonsei University (Korea) and conducted based on the guidelines of the Korean Food and Drug Administration.

tibiae (E15.5) = assay: Tibial organ culture (ex vivo); design: species or system mouse; conditions: 100 nM, 6 d
Procedure: Figure 2. The effects of estrogen on CXXC5 expression and the mediation of growth plate senescence. (A) Immunoblotting (upper) and quantitative analyses (mean ± SEM, n = 3) (lower) in C28/I2 cells treated with 100 nM E2 (17β-estradiol) for 0, 1, 3, 6, 24, 48, or 72 h. (B) Immunocytochemical staining (left) and quantitative analyses of the fluorescent intensity (mean ± SEM, n = 3; t test, **P < 0.005 and ***P < 0.0005) (right) in C28/I2 cells treated with 100 nM E2 for 40 h. Scale bars, 100 μm. (C–E) Tibial organ cultures (E15.5) incubated with 100 nM E2 for 6 d. Representative images at 6 d (C, left) and quantitative analyses of the growth changes (mean ± SEM, n = 5; t test, ***P < 0.0005) (C, right). Scale bar, 1 mm. H&E staining (D, left) and quantification of each zone height (mean ± SEM, n = 5; t test, *P < 0.05 and **P < 0.005) (D, right) in the growth plate. Scale bar, 200 μm. IHC analyses of β-catenin and CXXC5 (E). Scale bars, 50 μm. (F) 3-wk-old Cxxc5^+/+ and Cxxc5^−/− mice were treated with E2 cypionate (70 μg/kg) by i.m. injection once a week for 3 wk (n = 3–4). Representative images of H&E staining and IHC analyses for BrdU, β-catenin, and CXXC5 in the growth plates of proximal tibiae are shown. […] Tibial length was measured before treatment and after 6 d in culture. The samples were then prepared for paraffin embedding, sectioned, and analyzed by H&E and IHC staining.

CON=C1C(=C2C(=O)Nc3cc(Cl)c(Cl)cc32)Nc2ccccc21 [KY19382, 5,6-dichloroindirubin-3′-methoxime]
IC50 (CXXC5–DVL interaction): 19 nM
body weight during treatment [1]: no difference in weight
histology of articular cartilage and liver tissues [1]: no histological abnormalities were detected

C[C@]12CC[C@@H]3c4ccc(O)cc4CC[C@H]3[C@@H]1CC[C@@H]2O [E2, 17β-estradiol]
tibial length in ex vivo tibial culture (tibiae (E15.5)): reduced tibial length
